Data taken from publication PMC8286840, “Identifying SARS-CoV-2 antiviral compounds by screening for small molecule inhibitors of Nsp3 papain-like protease” (Biochemical Journal, 2021).
Structures can show the parent of a compound that is named as a salt. Where two headings read alike, the source gives them in different places.

Experiments:
[1] = target: T1, SARS-CoV-2 PLpro (nsp3 1564–1878) (Severe acute respiratory syndrome coronavirus 2, UniProt P0DTD1); test: biochemical; set-up: FRET-quenched peptide (Pro3) cleavage by PLpro, 10 min pre-incubation, slope over 20 min, normalised to no-compound control; details: low concentration screen, read-out: % of control remaining
[2] = target: T1, SARS-CoV-2 PLpro (nsp3 1564–1878); test: biochemical; set-up: FRET-quenched peptide (Pro3) cleavage by PLpro, 10 min pre-incubation, slope over 20 min, normalised to no-compound control; details: high concentration screen, read-out: % of control remaining

## Cc1cn([C@H]2C[C@H](O)[C@@H](CO)O2)c(=O)nc1N [5-Methyl-2'-deoxycytidine]
[1]; Well no.=7493
  remaining activity at 1.25 µM: 104%
[1]; Well no.=7720
  remaining activity at 1.25 µM: 98.8%
[2]; Well no.=7493
  remaining activity at 3.75 µM: 105%
[2]; Well no.=7720
  remaining activity at 3.75 µM: 102%

## C[C@]12CCC(=O)C=C1CC[C@@H]1[C@@H]2[C@@H](O)C[C@@]2(C)[C@H]1CC[C@]2(O)C(=O)COC(=O)CCC(=O)O [Hydrocortisone 21-hemisuccinate sodium salt]
[1]; Well no.=5653
  remaining activity at 1.25 µM: 99%
[2]; Well no.=5653
  remaining activity at 3.75 µM: 102%

## NC1CCN(c2c(F)cc3c(=O)c(C(=O)O)cn(C4CC4)c3c2Cl)C1 (centres unmarked) [Clinafloxacin]
[1]; Well no.=2271
  remaining activity at 1.25 µM: 93.2%
[2]; Well no.=2271
  remaining activity at 3.75 µM: 96.8%

## COc1ccc(-c2oc3c(CC=C(C)C)c(O)cc(O)c3c(=O)c2O[C@@H]2O[C@@H](C)[C@H](O)[C@@H](O)[C@H]2O)cc1 [Baohuoside I]
[1]; Well no.=6684
  remaining activity at 1.25 µM: 108%
[1]; Well no.=7047
  remaining activity at 1.25 µM: 101%
[2]; Well no.=6684
  remaining activity at 3.75 µM: 102%
[2]; Well no.=7047
  remaining activity at 3.75 µM: 96.4%
[2]; Well no.=8129
  remaining activity at 3.75 µM: 99.8%

## NC(=O)c1cc(-c2ccc(S(=O)(=O)[C@H]3CC[C@H](Nc4ccc(C(F)(F)F)cn4)CC3)cc2)ccn1 [CCR6 inhibitor 1]
[1]; Well no.=8609
  remaining activity at 1.25 µM: 103%
[2]; Well no.=8609
  remaining activity at 3.75 µM: 99%

## OCCn1cc(-c2ccc3c(c2)CC/C3=N\O)c(-c2ccncc2)n1 [GDC-0879]
[1]; Well no.=5043
  remaining activity at 1.25 µM: 104%
[2]; Well no.=5043
  remaining activity at 3.75 µM: 104%

## Cc1cc(=O)[nH]c(=S)[nH]1 [Methylthiouracil]
[1]; Well no.=4973
  remaining activity at 1.25 µM: 99.9%
[1]; Well no.=6148
  remaining activity at 1.25 µM: 98.5%
[2]; Well no.=4973
  remaining activity at 3.75 µM: 98.5%
[2]; Well no.=6148
  remaining activity at 3.75 µM: 102%

## NC(=O)c1ccc2[nH]ccc2c1 [SD169]
[1]; Well no.=2797
  remaining activity at 1.25 µM: 106%
[2]; Well no.=2797
  remaining activity at 3.75 µM: 106%

## CN1CC[C@@]23CCCC[C@@H]2[C@@H]1Cc1ccc(O)cc13 [Dextrorphan D-tartrate]
[1]; Well no.=592
  remaining activity at 1.25 µM: 101%
[2]; Well no.=592
  remaining activity at 3.75 µM: 103%

## Cn1c(N2CCCCS2(=O)=O)nc(C(=O)NCc2ccc(F)cc2)c(O)c1=O [BMS-707035]
[1]; Well no.=5193
  remaining activity at 1.25 µM: 105%
[2]; Well no.=5193
  remaining activity at 3.75 µM: 106%

## Clc1ccc(C(c2ccccc2Cl)C(Cl)Cl)cc1 (centres unmarked) [1-(2-Chlorophenyl)-1-(4-chlorophenyl)-2,2-dichloroethane]
[1]; Well no.=76
  remaining activity at 1.25 µM: 96.7%
[2]; Well no.=76
  remaining activity at 3.75 µM: 97.1%

## Cc1cc(C(C)Nc2ccccc2)c2nc(N3CCOCC3)cc(=O)n2c1 (centres unmarked)
[1]; Well no.=2577
  remaining activity at 1.25 µM: 101%
[2]; Well no.=2577
  remaining activity at 3.75 µM: 101%

## Nc1nc(OCc2ccccc2)c2nc[nH]c2n1 [O6-benzylguanine]
[1]; Well no.=123
  remaining activity at 1.25 µM: 106%
[2]; Well no.=123
  remaining activity at 3.75 µM: 105%

## Fc1ccc(-c2cncc(CN3CCN(c4cccc5c4OCCO5)CC3)c2)cc1 [Adoprazine]
[1]; Well no.=8443
  remaining activity at 1.25 µM: 100%
[2]; Well no.=8443
  remaining activity at 3.75 µM: 98.5%

## CNC(=O)c1ccccc1Nc1nc(Nc2ccc(N3CCOCC3)cc2OC)ncc1Cl [NVP-TAE226]
[1]; Well no.=4789
  remaining activity at 1.25 µM: 103%
[2]; Well no.=4789
  remaining activity at 3.75 µM: 105%

## COc1cc2c(cc1OC)CN(CCc1ccc(NC(=O)c3cc(OC)c(OC)cc3NC(=O)c3cnc4ccccc4c3)cc1)CC2 [Tariquidar]
[1]; Well no.=4796
  remaining activity at 1.25 µM: 98.7%
[2]; Well no.=4796
  remaining activity at 3.75 µM: 92.7%

## O=c1oc2c(O)c(O)cc3c(=O)oc4c(O)c(O)cc1c4c23 [Ellagic acid]
[1]; Well no.=3346
  remaining activity at 1.25 µM: 99.4%
[2]; Well no.=3346
  remaining activity at 3.75 µM: 101%

## C=C1CC[C@H]2C(=C)CC[C@H]3C(=C)C(=O)O[C@@H]3[C@@H]12 [Dehydrocostus lactone]
[1]; Well no.=3206
  remaining activity at 1.25 µM: 101%
[2]; Well no.=3206
  remaining activity at 3.75 µM: 100%

## c1cc(OCCN2CCCCC2)cc(-c2n[nH]c3ccc(-c4nnc[nH]4)cc23)c1 [CC-401]
[1]; Well no.=3027
  remaining activity at 1.25 µM: 99.3%
[2]; Well no.=3027
  remaining activity at 3.75 µM: 96.9%

## CCN(CC)CCNC(=O)c1cc(S(C)(=O)=O)ccc1OC [Tiapride hydrochloride]
[1]; Well no.=1185
  remaining activity at 1.25 µM: 101%
[2]; Well no.=1185
  remaining activity at 3.75 µM: 100%

## Nc1nc2c(ncn2COCCO)c(=O)[nH]1 [Acyclovir]
[1]; Well no.=159
  remaining activity at 1.25 µM: 104%
[1]; Well no.=8000
  remaining activity at 1.25 µM: 92.6%
[2]; Well no.=159
  remaining activity at 3.75 µM: 103%
[2]; Well no.=8000
  remaining activity at 3.75 µM: 89.5%

## CCCN1CCC[C@H](c2cccc(O)c2)C1 [R(+)-3PPP hydrochloride]
[1]; Well no.=1261
  remaining activity at 1.25 µM: 105%
[2]; Well no.=1261
  remaining activity at 3.75 µM: 107%

## Cc1c(F)cccc1NC(=O)Nc1ccc(Cl)c(S(=O)(=O)[C@H]2CCCNC2)c1O [Danirixin]
[1]; Well no.=8173
  remaining activity at 1.25 µM: 111%
[2]; Well no.=8173
  remaining activity at 3.75 µM: 103%

## O=C(O)CC[N+](=O)[O-] [3-Nitropropionic acid]
[1]; Well no.=953
  remaining activity at 1.25 µM: 100%
[2]; Well no.=953
  remaining activity at 3.75 µM: 99.4%

## c1cnc(N2CCN(Cc3ccc4c(c3)OCO4)CC2)nc1 [Piribedil.2HCl]
[1]; Well no.=1841
  remaining activity at 1.25 µM: 96.6%
[2]; Well no.=1841
  remaining activity at 3.75 µM: 95.4%

## COc1ccc(C[C@@H]2c3cc(OC)c(OC)cc3CC[N@+]2(C)CCC(=O)OCCCCCOC(=O)CC[N@@+]2(C)CCc3cc(OC)c(OC)cc3[C@H]2Cc2ccc(OC)c(OC)c2)cc1OC [Atracurium besylate]
[1]; Well no.=2133
  remaining activity at 1.25 µM: 92.8%
[2]; Well no.=2133
  remaining activity at 3.75 µM: 98.2%

## N=C(N)NC(=O)Cc1c(Cl)cccc1Cl [Guanfacine (hydrochloride)]
[1]; Well no.=6275
  remaining activity at 1.25 µM: 101%
[2]; Well no.=6275
  remaining activity at 3.75 µM: 102%

## CN1CCC(C(=O)c2cccc(NC(=O)c3c(F)cc(F)cc3F)n2)CC1 [Lasmiditan (hydrochloride)]
[1]; Well no.=8055
  remaining activity at 1.25 µM: 97%
[2]; Well no.=8055
  remaining activity at 3.75 µM: 98.4%

## Cn1c(=O)ccn([C@@H]2O[C@H](CO)[C@@H](O)[C@H]2O)c1=O [3-Methyluridine]
[1]; Well no.=7067
  remaining activity at 1.25 µM: 93.2%
[1]; Well no.=7918
  remaining activity at 1.25 µM: 101%
[2]; Well no.=7067
  remaining activity at 3.75 µM: 91.5%
[2]; Well no.=7918
  remaining activity at 3.75 µM: 101%

## CC(C)(Sc1ccc(CCN(CCCCC2CCCCC2)C(=O)NC2CCCCC2)cc1)C(=O)O [GW7647]
[1]; Well no.=621
  remaining activity at 1.25 µM: 95.2%
[2]; Well no.=621
  remaining activity at 3.75 µM: 96.3%

## O=c1c(O)c(-c2ccc(O)cc2O)oc2cc(O)cc(O)c12 [Morin hydrate]
[1]; Well no.=5680
  remaining activity at 1.25 µM: 99.9%
[2]; Well no.=5680
  remaining activity at 3.75 µM: 99.5%

## CC1(C)CCC(C)(C)c2cc(C(=O)Nc3ccc(C(=O)O)cc3)ccc21 [AM-580]
[1]; Well no.=4434
  remaining activity at 1.25 µM: 92.7%
[2]; Well no.=4434
  remaining activity at 3.75 µM: 86%

## C[C@]1(c2nc3c(C(N)=O)cccc3[nH]2)CCCN1 [ABT-888 (Veliparib)]
[1]; Well no.=5222
  remaining activity at 1.25 µM: 95.8%
[2]; Well no.=5222
  remaining activity at 3.75 µM: 94.2%
